# Data: patent publication US9585962B1, “Treatment for actinic keratoses” (priority 2013, dated 2017)
# Tested on: actinic keratoses
# Details: 0.1% in a dermatologically acceptable cream base
compound,measurement,value
COc1cc2c(c(OC)c1OC)-c1ccc(OC)c(=O)cc1[C@@H](NC(C)=O)CC2 [colchicine],actinic keratoses cleared,35-40%
same,skin irritation,significant level of skin irritation
